From paper PMC4026528 (PLoS ONE, 2014) come the findings set out here.

What all share (type): cell-based, human
The test system of test [1] is HT-1080 cells. The experiment in a line: Tube formation assay, HT-1080. Here is the method:
Soft agar assay and analysis was carried out as previously described. For scratch assay, confluent monolayer of U2OS and HT-1080 cells were subjected to scratch using a sterile pipette tip. Wounded monolayers were washed to remove debris and incubated with SEN461 at different concentrations for 20 hours. After the incubation period, images were taken under an Axiovert 200M (Zeiss) microscope equipped with a CCD camera, and the gap width was measured using MetaMorph 6.3 software (Universal Imaging Corp.) to calculate the area covered by cells (pixels unit). The tube formation assay was performed using growth factor-reduced Matrigel from BD (BD Biosciences; San Jose, CA, USA). Matrigel was thawed overnight at 4°C and was diluted (1∶1) with phenol red-free DMEM without serum. 100 µl of the diluted matrigel was used to coat the wells of a 96 well plate and was allowed to polymerize for 2 hours at 37°C. […] The tube formation was monitored under a phase contrast microscope (Axiovert 200, Zeiss) and imaged using MetaMorph system (Universal Imaging Corp).

For test [2], the system named is U2OS (osteosarcoma) cells. The experiment in a line: Soft agar assay (anchorage-independent growth), U2OS. To be noted: Homo sapiens. On the procedure:
(§1) Soft agar assay and analysis was carried out as previously described. For scratch assay, confluent monolayer of U2OS and HT-1080 cells were subjected to scratch using a sterile pipette tip. Wounded monolayers were washed to remove debris and incubated with SEN461 at different concentrations for 20 hours. After the incubation period, images were taken under an Axiovert 200M (Zeiss) microscope equipped with a CCD camera, and the gap width was measured using MetaMorph 6.3 software (Universal Imaging Corp.) to calculate the area covered by cells (pixels unit). The tube formation assay was performed using growth factor-reduced Matrigel from BD (BD Biosciences; San Jose, CA, USA). Matrigel was thawed overnight at 4°C and was diluted (1∶1) with phenol red-free DMEM without serum. 100 µl of the diluted matrigel was used to coat the wells of a 96 well plate and was allowed to polymerize for 2 hours at 37°C. After equilibrating the gel with the complete growth medium, 15×10^3 cells were seeded in each well and incubated for 20 hours. The tube formation was monitored under a phase contrast microscope (Axiovert 200, Zeiss) and imaged using MetaMorph system (Universal Imaging Corp).

For test [3], the system named is HT-1080 (fibrosarcoma) cells. Kind of test: Soft agar assay (anchorage-independent growth), HT-1080. To be noted: Homo sapiens. On the procedure:
as §1

Test [4] relates to Wnt target gene mRNA in HT-1080 cells. The experiment in a line: Quantitative RT-PCR of Wnt target genes in HT-1080. To be noted: HT-1080, overnight, 10 µmol/L. On the procedure: RNA extraction and quantitative RT-PCR (qPCR) expression analysis was performed as described previously. Gene expression analysis was performed using the human housekeeping gene RPL13A. Primers for the hAXIN2, hCDC25A, hc-MYC, hFZD4, hDVL2, hCSNK1G and hVEGF-A were the following: Fw: 5′-CAAGGGCCAGGTCACCAA-3′ Rv: 5′-CCCCCAACCCATCTTCGT-3′; Fw: 5′-[…]-3′ Rv: 5′-[…]-3′; Fw: 5′-GGCTCCTGGCAAAAGGTCA-3′ Rv: 5′-[…]-3′; Fw: 5′-[…]-3′ Rv: 5′-[…]-3′; Fw: 5′-[…]-3′ Rv: 5′-GTCTCCCCGCTCATTGCTC-3′; Fw: 5′-[…]-3′ Rv: 5′-[…]-3′; Fw: 5′-[…]-3′ Rv: 5′-[…]-3′.

In test [5] the test system is Axin1, c-Myc, p21 protein in HT-1080 cells. Kind of test: Western blotting in HT-1080. The settings on record: HT-1080, overnight. A general note: In western blotting, separated proteins are transferred to a membrane and probed.

What is called IC50 is the concentration that gives 50% inhibition.

On to `Cc1ccc(C(=O)Nc2ccc(S(=O)(=O)O)c3cc(S(=O)(=O)O)cc(S(=O)(=O)O)c23)cc1NC(=O)c1cccc(NC(=O)Nc2cccc(C(=O)Nc3cc(C(=O)Nc4ccc(S(=O)(=O)O)c5cc(S(=O)(=O)O)cc(S(=O)(=O)O)c45)ccc3C)c2)c1` [Suramin], for which, in test [1] (HT-1080, 3 µmol/L, data not shown), the tubule-formation activity result is recorded as “complete abrogation of tubule formation”.
As for `Oc1nc(-c2ccc(C(F)(F)F)cc2)nc2c1CSCC2` [XAV939, reference compound], the IC50 is 200 nM in test [2] and 1900 nM in test [3]. In test [4], the “c-MYC mRNA” value is “comparable activity”. In addition, the c-Myc protein level entry in test [5] is recorded as “did not affect c-Myc protein level”. Moreover, in test [1] (HT-1080, 24 hours exposure, vs DMSO), the tubule-formation activity entry is listed as “did not produce any change”.
